Patent US11878965B2, “Inhibitors of peptidylarginine deiminases” (Gilead Sciences, Inc., priority 2020, dated 2024)

Biological target: human PAD4 (Homo sapiens (Human), UniProt Q9UM07)
Test: In Vitro PAD4 BAEE Biochemical Assay
Conditions: recombinant PAD4 5 nM, 2 mM calcium chloride, 3 mM BAEE substrate; geometric mean of multiple experiments
Summary of the method: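 Deimination of BAEE substrate (3 mM) measured as ammonia via o-phthalaldehyde–DTT isoindole fluorescence, 405/535 nm. Tag-free bacterially expressed human PAD4 at 5 nM with 2 mM calcium chloride, pH 7.6 MOPS buffer, 30 min compound preincubation then 2 h reaction, both at 25 °C.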

Chain of human PAD4 (Q9UM07 2-663): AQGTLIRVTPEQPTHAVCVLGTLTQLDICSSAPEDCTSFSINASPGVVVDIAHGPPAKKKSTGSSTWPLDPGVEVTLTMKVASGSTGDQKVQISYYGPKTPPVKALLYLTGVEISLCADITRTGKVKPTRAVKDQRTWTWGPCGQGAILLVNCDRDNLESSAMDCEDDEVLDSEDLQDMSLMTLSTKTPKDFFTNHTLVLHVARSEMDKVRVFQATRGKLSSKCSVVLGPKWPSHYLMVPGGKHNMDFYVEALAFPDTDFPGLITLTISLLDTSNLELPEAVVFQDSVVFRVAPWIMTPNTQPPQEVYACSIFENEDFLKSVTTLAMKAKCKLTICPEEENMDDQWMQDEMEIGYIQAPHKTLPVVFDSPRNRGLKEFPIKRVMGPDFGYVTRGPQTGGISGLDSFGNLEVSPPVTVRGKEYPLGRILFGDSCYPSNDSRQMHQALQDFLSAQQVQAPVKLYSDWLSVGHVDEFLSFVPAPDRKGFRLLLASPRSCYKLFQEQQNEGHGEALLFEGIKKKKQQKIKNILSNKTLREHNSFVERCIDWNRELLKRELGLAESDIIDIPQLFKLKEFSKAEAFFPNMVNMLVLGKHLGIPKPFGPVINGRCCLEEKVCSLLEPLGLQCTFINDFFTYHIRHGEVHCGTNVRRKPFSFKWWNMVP

`COc1cc(C(=O)N2C[C@H](N)[C@@H]3CC[C@H]2C3)cc2nc(-c3cc4ccc([C@@H](C)NC(=O)c5cccc(C(F)F)n5)nc4n3CC3CC3)n(C)c12` [Example 307, N-((R)-1-(2-(5-((1S,4R,5R)-4-amino-2-azabicyclo[3.2.1]octane-2-carbonyl)-7-methoxy-1-methyl-1H-benzo[d]imidazol-2-yl)-1-(cyclopropylmethyl)-1H-pyrrolo[2,3-b]pyridin-6-yl)ethyl)-6-(difluoromethyl) picolinamide] showed an IC50 of 382 nM.
